These results are taken from patent US12570655B2, “Cysteine covalent modifiers of AKT1 and uses thereof” (Terremoto Biosciences, Inc., priority 2023, dated 2026).

Where two headings read alike, the source gives them in different places.

Common to all, as to type: cell-based
One assay has as its target T1, AKT1 WT (Homo sapiens, UniProt P31749).
T1 construct: expressed in transfected cells; host or cells: HEK293
In words: Live cell AKT1 WT target engagement by NanoBRET competitive probe displacement. The following applies: HEK293 cells transfected with kinase-NanoLuciferase fusion, 2 h at 37° C. In short, it runs like this:
(§1)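 IC50 reflects displacement of a fluorescent ATP-competitive tracer, dosed near its EC50, from kinase–NanoLuciferase fusions in live HEK293 cells. Cells were incubated with compound and tracer for 2 h at 37 °C, then E600/E460 BRET was read.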
In general terms: In BRET a luciferase serves as donor, and the signal depends on an acceptor being close.

The target in a further assay is T2, AKT2 (Homo sapiens, UniProt P31751).
T2 construct: expressed in transfected cells; host or cells: HEK293
Nature of the assay: Live cell AKT2 target engagement by NanoBRET competitive probe displacement. The following applies: HEK293 cells transfected with kinase-NanoLuciferase fusion, 2 h at 37° C. The essentials:
as §1

The next assay concerns the target T3, AKT1 E17K (Homo sapiens, UniProt P31749, E17K).
T3 construct: expressed in transfected cells; host or cells: HEK293
Nature of the assay: Live cell AKT1 E17K target engagement by NanoBRET competitive probe displacement. The following applies: HEK293 cells transfected with kinase-NanoLuciferase fusion, 2 h at 37° C. The essentials: as §1

Assay [1] concerns LAPC4 prostate cancer cells. In words: Antiproliferative effects in LAPC4 cells (CellTiter Glo). The following applies: LAPC4 cells (AKT1 E17K allele), read-out: LAPC4 proliferation IC50. The essentials:
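Seed 1,000 cells/well in IMDM/12% FBS/1% P/S; add compound dilutions (DMSO); incubate 72 h; read intracellular ATP with CellTiter Glo; fit luminescence to log(inhibitor)-response Hill curve for IC50.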
(In general: In ATP-based viability assays light output follows the ATP content of the culture.)

T2 sequence (P31751 whole entry): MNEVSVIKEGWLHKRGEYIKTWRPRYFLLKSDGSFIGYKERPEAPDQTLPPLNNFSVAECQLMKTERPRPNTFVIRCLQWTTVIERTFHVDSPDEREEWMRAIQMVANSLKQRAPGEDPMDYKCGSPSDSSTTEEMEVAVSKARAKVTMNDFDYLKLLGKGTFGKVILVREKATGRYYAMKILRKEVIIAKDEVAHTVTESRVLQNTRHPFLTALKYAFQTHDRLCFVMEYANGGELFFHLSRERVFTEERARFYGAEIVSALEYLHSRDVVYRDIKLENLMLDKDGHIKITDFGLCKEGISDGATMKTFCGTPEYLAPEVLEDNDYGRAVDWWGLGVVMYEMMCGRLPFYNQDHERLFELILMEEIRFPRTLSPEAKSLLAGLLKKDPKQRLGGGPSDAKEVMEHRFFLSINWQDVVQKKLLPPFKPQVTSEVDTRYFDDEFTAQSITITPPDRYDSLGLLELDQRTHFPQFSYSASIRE
T1 sequence (P31749 whole entry): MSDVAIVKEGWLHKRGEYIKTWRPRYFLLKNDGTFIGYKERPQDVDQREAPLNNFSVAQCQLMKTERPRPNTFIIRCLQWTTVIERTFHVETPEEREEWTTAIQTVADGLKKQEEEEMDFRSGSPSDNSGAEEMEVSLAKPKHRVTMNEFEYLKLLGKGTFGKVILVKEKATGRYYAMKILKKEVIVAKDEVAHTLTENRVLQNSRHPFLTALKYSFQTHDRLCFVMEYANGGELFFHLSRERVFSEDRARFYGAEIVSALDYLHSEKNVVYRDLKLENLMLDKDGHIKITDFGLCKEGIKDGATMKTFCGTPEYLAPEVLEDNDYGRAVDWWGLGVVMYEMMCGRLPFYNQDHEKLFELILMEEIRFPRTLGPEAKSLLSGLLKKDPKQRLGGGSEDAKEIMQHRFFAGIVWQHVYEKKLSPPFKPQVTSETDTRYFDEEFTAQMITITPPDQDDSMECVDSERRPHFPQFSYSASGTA
T3 sequence (P31749 whole entry E17K): as the sequence (P31749 whole entry) above, with E17K counted along it

With `C=C(F)C(=O)N1CC2(CC(N[C@H]3CCc4cc(-n5c(-c6cccnc6N)nc6ccc(-n7cccn7)nc65)ccc43)C2)C1` [Example 83, (S)-1-(6-((5-(2-(2-aminopyridin-3-yl)-5-(1H-pyrazol-1-yl)-3H-imidazo[4,5-b]pyridin-3-yl)-2,3-dihydro-1H-inden-1-yl)amino)-2-azaspiro[3.3]heptan-2-yl)-2-fluoroprop-2-en-1-one], the IC50 at AKT1 WT amounted to 0.0562 µM; on AKT2 it was 0.583 µM; on AKT1 E17K it was 0.192 µM; in assay [1] (Homo sapiens, LAPC4, 72 h), 0.506 µM.
For `C=CC(=O)N1CCC(N[C@@H]2c3ccc(-n4c(-c5cccnc5N)nc5ccc(-n6ccc(OC)n6)nc54)cc3CC2F)CC1` (single isomer, unassigned) [Example 286, 1-(4-(((1R,2*)-5-(2-(2-aminopyridin-3-yl)-5-(3-methoxy-1H-pyrazol-1-yl)-3H-imidazo[4,5-b]pyridin-3-yl)-2-fluoro-2,3-dihydro-1H-inden-1-yl)amino)piperidin-1-yl)prop-2-en-1-one] the same measures were 0.273 µM, 0.0363 µM, 0.0107 µM and 0.124 µM.
As to `C=CC(=O)N1CCC(N[C@H]2CCc3cc(-n4c(-c5cccnc5N)nc5ccc(-n6cccn6)nc54)ccc32)C(C#N)C1` (single isomer, unassigned) [Example 156, (3*,4*)-1-acryloyl-4-(((S)-5-(2-(2-aminopyridin-3-yl)-5-(1H-pyrazol-1-yl)-3H-imidazo[4,5-b]pyridin-3-yl)-2,3-dihydro-1H-inden-1-yl)amino)piperidine-3-carbonitrile], the IC50 amounted to 0.0098 µM on AKT1 WT, 0.0647 µM at AKT2, 0.0113 µM at AKT1 E17K and 0.0302 µM in assay [1] (72 h).
Regarding `C=CC(=O)N1CCC(N[C@H]2CCc3cc(-n4c(-c5cccnc5N)nc5ccc(-n6ccc(Cl)n6)nc54)ccc32)CC1` [Example 252, 1-(4-{[(1S)-5-[2-(2-aminopyridin-3-yl)-5-(3-chloropyrazol-1-yl)imidazo[4,5-b]pyridin-3-yl]-2,3-dihydro-1H-inden-1-yl]amino}piperidin-1-yl)prop-2-en-1-one], the IC50 on AKT1 WT stood at 0.127 µM; on AKT2, 0.0385 µM; at AKT1 E17K, 0.0104 µM; in assay [1] (Homo sapiens, LAPC4, 72 h), 0.09 µM.
For `C=CC(=O)N1C[C@@H]2C[C@H]1CC2N[C@H]1CCc2cc(-n3c(-c4cccnc4N)nc4ccc(-n5cccn5)nc43)ccc21` (single isomer, unassigned) [Example 135, 1-[(1S,4S,5*)-5-{[(1S)-5-[2-(2-aminopyridin-3-yl)-5-(pyrazol-1-yl)imidazo[4,5-b]pyridin-3-yl]-2,3-dihydro-1H-inden-1-yl]amino}-2-azabicyclo[2.2.1]heptan-2-yl]prop-2-en-1-one] the same measures were 0.0222 µM, 0.478 µM, 0.152 µM and 0.302 µM.
With `C=CC(=O)N1CCC(N[C@H]2CCc3cc(-n4c(-c5cccnc5N)nc5ccc(-n6cccn6)nc54)ccc32)C(F)C1` (single isomer, unassigned) [Example 104, 1-((3*,4*)-4-(((S)-5-(2-(2-aminopyridin-3-yl)-5-(1H-pyrazol-1-yl)-3H-imidazo[4,5-b]pyridin-3-yl)-2,3-dihydro-1H-inden-1-yl)amino)-3-fluoropiperidin-1-yl)prop-2-en-1-one], the IC50 at AKT1 WT stood at 0.00452 µM; on AKT2, 0.0927 µM; at AKT1 E17K it was 0.0206 µM; in assay [1] (72 h), 0.12 µM.
For `C=CC(=O)N1CCC(N[C@H]2CCc3cc(-n4c(-c5cccnc5N)nc5ccc(-n6ccc(C7CCC7)n6)nc54)ccc32)CC1` [Example 283, 1-(4-{[(1S)-5-[2-(2-aminopyridin-3-yl)-5-(3-cyclobutylpyrazol-1-yl)imidazo[4,5-b]pyridin-3-yl]-2,3-dihydro-1H-inden-1-yl]amino}piperidin-1-yl)prop-2-en-1-one], the IC50 turned out to be 0.133 µM at AKT1 WT; 0.042 µM on AKT2; 0.00903 µM on AKT1 E17K; 0.835 µM in assay [1] (Homo sapiens, LAPC4, 72 h).
For `C=CC(=O)N1CCC(N[C@H]2CCc3cc(-n4c(-c5cccnc5N)nc5ccc(C6CC6)nc54)ccc32)C(F)C1` (single isomer, unassigned) [Example 176, 1-((3*,4*)-4-(((S)-5-(2-(2-aminopyridin-3-yl)-5-cyclopropyl-3H-imidazo[4,5-b]pyridin-3-yl)-2,3-dihydro-1H-inden-1-yl)amino)-3-fluoropiperidin-1-yl)prop-2-en-1-one] the same measures were 0.967 µM, 0.484 µM, 0.0378 µM and 0.433 µM.
For `C=CC(=O)N1CCC(N[C@H]2CCc3cc(-n4c(-c5cccnc5N)nc5c(OC)cc(-n6cccn6)nc54)ccc32)CC1` [Example 337, 1-(4-{[(1S)-5-[2-(2-aminopyridin-3-yl)-7-methoxy-5-(pyrazol-1-yl)imidazo[4,5-b]pyridin-3-yl]-2,3-dihydro-1H-inden-1-yl]amino}piperidin-1-yl)prop-2-en-1-one] the same measures were 0.0303 µM, 0.0294 µM, 0.00633 µM and 0.0995 µM.
For `C=CC(=O)N1CCC(N(CCOC)[C@H]2CCc3cc(-n4c(-c5cccnc5N)nc5ccc(-n6cccn6)nc54)ccc32)CC1` [Example 74, 1-(4-{[(1S)-5-[2-(2-aminopyridin-3-yl)-5-(pyrazol-1-yl)imidazo[4,5-b]pyridin-3-yl]-2,3-dihydro-1H-inden-1-yl](2-methoxyethyl)amino}piperidin-1-yl)prop-2-en-1-one] the same measures were 0.179 µM, 2.94 µM, above 1 µM and 1.63 µM.
Consider `CC#CC(=O)Nc1cccc(C(=O)N[C@H]2CCc3cc(-n4c(-c5cccnc5N)nc5ccc(-n6cccn6)nc54)ccc32)c1` [Example 12, (S)-N-(5-(2-(2-aminopyridin-3-yl)-5-(1H-pyrazol-1-yl)-3H-imidazo[4,5-b]pyridin-3-yl)-2,3-dihydro-1H-inden-1-yl)-3-(but-2-ynamido)benzamide], for which the IC50 was 0.0112 µM on AKT1 WT; 0.129 µM at AKT2; 0.0129 µM on AKT1 E17K; 0.343 µM in assay [1] (Homo sapiens, LAPC4, 72 h).
For `C=CC(=O)N1CCC(N[C@H]2CCc3cc(-n4c(-c5ccccc5F)nc5ccc(-n6cccn6)nc54)ccc32)CC1` [Example 241, 1-(4-{[(1S)-5-[2-(2-fluorophenyl)-5-(pyrazol-1-yl)imidazo[4,5-b]pyridin-3-yl]-2,3-dihydro-1H-inden-1-yl]amino}piperidin-1-yl)prop-2-en-1-one], the IC50 amounted to 0.205 µM at AKT1 WT; 0.0188 µM at AKT2; 0.00556 µM on AKT1 E17K; 0.0773 µM in assay [1] (Homo sapiens, LAPC4, 72 h).
For `NC(=O)/C=C/c1ncccc1C(=O)N[C@H]1CCc2cc(-n3c(-c4cccnc4N)nc4ccc(-n5cccn5)nc43)ccc21` [Example 45, N-[(1S)-5-[2-(2-aminopyridin-3-yl)-5-(pyrazol-1-yl)imidazo[4,5-b]pyridin-3-yl]-2,3-dihydro-1H-inden-1-yl]-2-[(1E)-2-carbamoyleth-1-en-1-yl]pyridine-3-carboxamide], in that order: 0.043 µM, 0.717 µM, 0.0684 µM and 0.296 µM.
For the compound `C=CC(=O)N1CCC(N[C@H]2CCc3cc(-n4c(-c5cccnc5N)nc5ccc(-n6cccn6)nc54)ccc32)C[C@@H]1COC` (single isomer, unassigned) [Example 164, 1-((2R,4*)-4-(((S)-5-(2-(2-aminopyridin-3-yl)-5-(1H-pyrazol-1-yl)-3H-imidazo[4,5-b]pyridin-3-yl)-2,3-dihydro-1H-inden-1-yl)amino)-2-(methoxymethyl)piperidin-1-yl)prop-2-en-1-one], the IC50 on AKT1 WT worked out at 0.058 µM; on AKT2, 4.1 µM; at AKT1 E17K, 0.475 µM; in assay [1] (72 h), 0.489 µM.
`C=CC(=O)N1CCC(N[C@H]2CCc3cc(-n4c(-c5cccnc5N)nc5cc(C(F)(F)F)cnc54)ccc32)CC1` [Example 216, 1-(4-{[(1S)-5-[2-(2-aminopyridin-3-yl)-6-(trifluoromethyl)imidazo[4,5-b]pyridin-3-yl]-2,3-dihydro-1H-inden-1-yl]amino}piperidin-1-yl)prop-2-en-1-one]: the IC50 is 2.35 µM at AKT1 WT; 0.352 µM on AKT2; 0.14 µM at AKT1 E17K; 3.96 µM in assay [1] (Homo sapiens, LAPC4, 72 h).
As to `C/C=C/C(=O)N1CCC(N[C@H]2CCc3cc(-n4c(-c5cccnc5N)nc5ccc(-n6cccn6)nc54)ccc32)CC1` [Example 96, (S,E)-1-(4-((5-(2-(2-aminopyridin-3-yl)-5-(1H-pyrazol-1-yl)-3H-imidazo[4,5-b]pyridin-3-yl)-2,3-dihydro-1H-inden-1-yl)amino)piperidin-1-yl)but-2-en-1-one], the IC50 is 0.058 µM at AKT1 WT; 3.91 µM at AKT2; above 1 µM on AKT1 E17K; 3.65 µM in assay [1] (Homo sapiens, LAPC4, 72 h).
For `C=CC(=O)Nc1cc(O)ccc1C(=O)N[C@H]1CCc2cc(-n3c(-c4cccnc4N)nc4ccc(-n5cccn5)nc43)ccc21` [Example 70, N-[(1S)-5-[2-(2-aminopyridin-3-yl)-5-(pyrazol-1-yl)imidazo[4,5-b]pyridin-3-yl]-2,3-dihydro-1H-inden-1-yl]-4-hydroxy-2-(prop-2-enamido)benzamide] the same measures were 0.0837 µM, 1.34 µM, 0.288 µM and 1.04 µM.
